Patent EP0390602A1, “Neurotrophic peptides” (SUMITOMO PHARMACEUTICALS COMPANY, LIMITED, priority 1989, dated 1990)
Values joined by “and” are separate entries in the source; they are usually repeats but may differ in a detail not shown here. Equal entries are not always repeated. Where no end group is shown, it is not given here.

Tested on: culture of rat medial septum nucleous
Assay: Enhancing effect on acetylcholine synthesis in culture of rat medial septum nucleus (method of Ojika et al.)
Format: cell-based
Conditions: for Ash synthesis (%): Table 4, Concentration 1 x 10⁻⁸, control value as 100%, several single values per cell
Protocol: The neurotrophic peptide and its derivative of the present invention can regulate differentiation and maturation of neuronal cells. That is, the neurotrophic peptide and its derivative accelerate the acetylcholine synthesis in the tissue of medial septum nucleous which is rich in cholinergic neuron. The biological activity can be determined by the method of Ojika, K., et al. [Ojika, K., et al., Japanese Journal of Psycopharmacology, 7, 447-451, (1987)].
The peptides were assayed for a biological activity in accordance with the method of Ojika et al. [Japanese Journal of Psycopharmacology, 7, 447-451 (1987)]. Namely, medial septum nucleous removed from rat embryonal brain (16 day embryo) is cut to small pieces, then the pieces were cultured in the Bottenstein's modified N₂ medium containing 1% FCS of saturation concentration, in Falcon's 35 mm plastic culture dish with 7% CO₂ mixed air, at 36°C. The neurotrophic peptide or its derivative was added to the cultures at initial day. In a control group, no peptide is added. The neurotrophic peptide may be added to the culture at 3 days after the initial day. After 6 days culture, an acetylcholine synthesis activity of cultured tissue was assayed to determine the biological activity of the peptide. The acetylcholine synthesis activity was assayed as follows.
A cultured tissue was pre-incubated in high potasium Tyrode solution buffered with tris-HCl (pH 7.4) containing 98 mM of Nacl and 55 mM of Kcl , then incubated in a buffered solution containing 100 nM [³H] choline chloride (15 Ci/mmol) at 37°C for 30 minutes. After washing out of free [³H] choline, the tissue was dissolved in 1 N formic acid/acetone (15 : 85) solution. Free [³H] choline was converted to phosphocholine by choline kinase (0.1 unit/ml) and [³H] acetylcholine was extracted with tetraphenyl boron (5 mg/ml acetonitrile) to determine the acetylcholine synthesis activity. The activity of cultured tissue for synthesis of acetylcholine was defined as an amount of synthesized acetylcholine per piece of cultured tissue.

| Substance | Ash synthesis (%) | Ach synthesis activity (Table 3, 2.5 pg/ml, 6 days culture, average value in triplet assay, Control 7.1 ± 1.1) | acetylcholine synthesis activity as compared with control culture (concentration of 2.5 pg/ml) |
| --- | --- | --- | --- |
| DISQWAG-NH2 [HCNP(3-9)NH₂] | 224% and 138% | – | – |
| ISQWAGPL [HCNP(4-11)OH, Ile-Ser-Gln-Trp-Ala-Gly-Pro-Leu] | 160% and 139% | – | – |
| H-AADISQWAGPL-OH [f-HCNP, H-Ala-Ala-Asp-Ile-Ser-Gln-Trp-Ala-Gly-Pro-Leu-OH] | – | 11.3 ± 0.8 fmol/specimen | 159% |
| Ac-AADISQWAG-NH2 [Ac-HCNP(1-9)NH₂] | 227% and 216% | – | – |
